PubChem BioAssay (NCI)
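In this assay, cells in 96-well plates receive the compound at five concentrations for 48 hours. Endpoints are linearly interpolated between the surrounding concentrations. Abbreviation: GI50, concentration required for 50% inhibition of growth. TGI is the concentration that stops growth completely.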

Legend:
Experiment in all cases: inhibition of tumour cell growth, NCI panel, 48 h
SNB-75 CNS = system: SNB-75 CNS
HL-60(TB) leukemia = system: HL-60(TB) leukemia
RPMI-8226 leukemia = system: RPMI-8226 leukemia
OVCAR-3 ovarian = system: OVCAR-3 ovarian
EKVX NSCLC = system: EKVX NSCLC
OVCAR-5 ovarian = system: OVCAR-5 ovarian
HCT-116 colon = system: HCT-116 colon
HCT-15 colon = system: HCT-15 colon
UO-31 renal = system: UO-31 renal
SN12C renal = system: SN12C renal
SK-MEL-28 melanoma = system: SK-MEL-28 melanoma
OVCAR-8 ovarian = system: OVCAR-8 ovarian
NCI/ADR-RES ovarian = system: NCI/ADR-RES ovarian
HOP-62 NSCLC = system: HOP-62 NSCLC
OVCAR-4 ovarian = system: OVCAR-4 ovarian
ACHN renal = system: ACHN renal
HT29 colon = system: HT29 colon
SW-620 colon = system: SW-620 colon
IGROV1 ovarian = system: IGROV1 ovarian
786-0 renal = system: 786-0 renal
CAKI-1 renal = system: CAKI-1 renal
NCI-H23 lung = system: NCI-H23 lung
SNB-19 CNS = system: SNB-19 CNS
COLO 205 colon = system: COLO 205 colon
SK-MEL-2 melanoma = system: SK-MEL-2 melanoma
MDA-MB-231 breast = system: MDA-MB-231 breast
NCI-H226 lung = system: NCI-H226 lung
T-47D breast = system: T-47D breast
DU-145 prostate = system: DU-145 prostate
HCC-2998 colon = system: HCC-2998 colon
U251 CNS = system: U251 CNS
A498 renal = system: A498 renal
UACC-257 melanoma = system: UACC-257 melanoma
K-562 leukemia = system: K-562 leukemia
LOX IMVI melanoma = system: LOX IMVI melanoma
MCF7 breast = system: MCF7 breast
SR leukemia = system: SR leukemia
HS 578T breast = system: HS 578T breast
SF-295 CNS = system: SF-295 CNS
BT-549 breast = system: BT-549 breast
NCI-H460 lung = system: NCI-H460 lung
NCI-H522 lung = system: NCI-H522 lung
RXF 393 renal = system: RXF 393 renal
TK-10 renal = system: TK-10 renal
SK-OV-3 ovarian = system: SK-OV-3 ovarian
MOLT-4 leukemia = system: MOLT-4 leukemia
KM12 colon = system: KM12 colon
SF-268 CNS = system: SF-268 CNS
MALME-3M melanoma = system: MALME-3M melanoma
SK-MEL-5 melanoma = system: SK-MEL-5 melanoma
MDA-MB-435 = system: MDA-MB-435
M14 melanoma = system: M14 melanoma
CCRF-CEM leukemia = system: CCRF-CEM leukemia
UACC-62 melanoma = system: UACC-62 melanoma
HOP-92 NSCLC = system: HOP-92 NSCLC
PC-3 prostate = system: PC-3 prostate
A549 NSCLC = system: A549 NSCLC
SF-539 CNS = system: SF-539 CNS
MDA-N = system: MDA-N

COC(=O)c1ccc2[nH]c(O)c(C(=Nc3ccc(N(C)C(=O)CN4CCN(C)CC4)cc3)c3cccc(OC)c3)c2c1
GI50 (SNB-75 CNS): 0.112 µM
TGI (SNB-75 CNS): 1.78 µM
GI50 (HL-60(TB) leukemia): 0.583 µM
TGI (HL-60(TB) leukemia): 2.51 µM
GI50 (RPMI-8226 leukemia): 1.02 µM
TGI (RPMI-8226 leukemia): 3.55 µM
GI50 (OVCAR-3 ovarian): 0.96 µM
TGI (OVCAR-3 ovarian): 2.57 µM
GI50 (EKVX NSCLC): 2.04 µM
TGI (EKVX NSCLC): 6.77 µM
GI50 (OVCAR-5 ovarian): 2.29 µM
TGI (OVCAR-5 ovarian): 5.46 µM
GI50 (HCT-116 colon): 0.21 µM
TGI (HCT-116 colon): 4.66 µM
GI50 (HCT-15 colon): 1.9 µM
TGI (HCT-15 colon): 7.04 µM
GI50 (UO-31 renal): 1.54 µM
TGI (UO-31 renal): 4.05 µM
GI50 (SN12C renal): 0.346 µM
TGI (SN12C renal): 10.8 µM
GI50 (SK-MEL-28 melanoma): 1.71 µM
TGI (SK-MEL-28 melanoma): 3.77 µM
GI50 (OVCAR-8 ovarian): 1.22 µM
TGI (OVCAR-8 ovarian): 9.91 µM
GI50 (NCI/ADR-RES ovarian): 12.4 µM
TGI (NCI/ADR-RES ovarian): 34 µM
GI50 (HOP-62 NSCLC): 1.21 µM
TGI (HOP-62 NSCLC): 4.78 µM
GI50 (OVCAR-4 ovarian): 0.96 µM
TGI (OVCAR-4 ovarian): 2.84 µM
GI50 (ACHN renal): 2.14 µM
TGI (ACHN renal): 7.99 µM
GI50 (HT29 colon): 0.89 µM
TGI (HT29 colon): 13.1 µM
GI50 (SW-620 colon): 0.429 µM
TGI (SW-620 colon): 4.95 µM
GI50 (IGROV1 ovarian): 0.191 µM
TGI (IGROV1 ovarian): 2.19 µM
GI50 (786-0 renal): 0.825 µM
TGI (786-0 renal): 2.38 µM
GI50 (CAKI-1 renal): 0.373 µM
TGI (CAKI-1 renal): 3.38 µM
GI50 (NCI-H23 lung): 1.05 µM
TGI (NCI-H23 lung): 3.48 µM
GI50 (SNB-19 CNS): 1.64 µM
TGI (SNB-19 CNS): 8.4 µM
GI50 (COLO 205 colon): 0.395 µM
TGI (COLO 205 colon): 1.8 µM
GI50 (SK-MEL-2 melanoma): 1.89 µM
TGI (SK-MEL-2 melanoma): 4.51 µM
GI50 (MDA-MB-231 breast): 1.31 µM
TGI (MDA-MB-231 breast): 3.27 µM
GI50 (NCI-H226 lung): 1.08 µM
TGI (NCI-H226 lung): 5.93 µM
GI50 (T-47D breast): 1.28 µM
TGI (T-47D breast): 9.34 µM
GI50 (DU-145 prostate): 1.89 µM
TGI (DU-145 prostate): 9.32 µM
GI50 (HCC-2998 colon): 1.65 µM
TGI (HCC-2998 colon): 4.98 µM
GI50 (U251 CNS): 1.15 µM
TGI (U251 CNS): 3 µM
GI50 (A498 renal): 1.26 µM
TGI (A498 renal): 2.61 µM
GI50 (UACC-257 melanoma): 2.01 µM
TGI (UACC-257 melanoma): 4.64 µM
GI50 (K-562 leukemia): 0.107 µM
TGI (K-562 leukemia): 4.37 µM
GI50 (LOX IMVI melanoma): 0.654 µM
TGI (LOX IMVI melanoma): 2.3 µM
GI50 (MCF7 breast): 0.353 µM
TGI (MCF7 breast): 1.93 µM
GI50 (SR leukemia): 0.231 µM
TGI (SR leukemia): 4.52 µM
GI50 (HS 578T breast): 0.213 µM
TGI (HS 578T breast): 4.13 µM
GI50 (SF-295 CNS): 1.12 µM
TGI (SF-295 CNS): 2.63 µM
GI50 (BT-549 breast): 1.39 µM
TGI (BT-549 breast): 3.47 µM
GI50 (NCI-H460 lung): 1.41 µM
TGI (NCI-H460 lung): 3.44 µM
GI50 (NCI-H522 lung): 1.03 µM
TGI (NCI-H522 lung): 3.89 µM
GI50 (RXF 393 renal): 0.549 µM
TGI (RXF 393 renal): 1.87 µM
GI50 (TK-10 renal): 1.61 µM
TGI (TK-10 renal): 3.78 µM
GI50 (SK-OV-3 ovarian): 0.198 µM
TGI (SK-OV-3 ovarian): 1.88 µM
GI50 (MOLT-4 leukemia): 0.392 µM
TGI (MOLT-4 leukemia): 3.26 µM
GI50 (KM12 colon): 0.0419 µM
TGI (KM12 colon): 4.49 µM
GI50 (SF-268 CNS): 1.48 µM
TGI (SF-268 CNS): 4.08 µM
GI50 (MALME-3M melanoma): 1.49 µM
TGI (MALME-3M melanoma): 2.96 µM
GI50 (SK-MEL-5 melanoma): 1.43 µM
TGI (SK-MEL-5 melanoma): 2.78 µM
GI50 (MDA-MB-435): 1.48 µM
TGI (MDA-MB-435): 3.86 µM
GI50 (M14 melanoma): 0.921 µM
TGI (M14 melanoma): 2.41 µM
GI50 (CCRF-CEM leukemia): 0.447 µM
TGI (CCRF-CEM leukemia): 6.83 µM
GI50 (UACC-62 melanoma): 2.14 µM
TGI (UACC-62 melanoma): 4.52 µM
GI50 (HOP-92 NSCLC): 2.98 µM
TGI (HOP-92 NSCLC): 10.9 µM
GI50 (PC-3 prostate): 0.631 µM
TGI (PC-3 prostate): 5.87 µM
GI50 (A549 NSCLC): 1.39 µM
TGI (A549 NSCLC): 6.42 µM
GI50 (SF-539 CNS): 0.463 µM
TGI (SF-539 CNS): 1.69 µM

CCOC(=O)N1CCC2C(=C(C)C(C)C3=C2C(=O)c2ccccc2C3=O)C1 (centres undefined)
TGI (SNB-75 CNS): > 10 µM
TGI (HL-60(TB) leukemia): 5.15 µM
TGI (RPMI-8226 leukemia): > 10 µM
TGI (EKVX NSCLC): > 10 µM
TGI (HCT-15 colon): > 10 µM
TGI (SN12C renal): > 10 µM
TGI (SK-MEL-28 melanoma): > 10 µM
TGI (OVCAR-8 ovarian): > 10 µM
TGI (HOP-62 NSCLC): > 10 µM
TGI (OVCAR-4 ovarian): > 10 µM
TGI (HT29 colon): > 10 µM
TGI (SW-620 colon): > 10 µM
TGI (IGROV1 ovarian): > 10 µM
TGI (786-0 renal): > 10 µM
TGI (CAKI-1 renal): > 10 µM
TGI (NCI-H23 lung): > 10 µM
TGI (COLO 205 colon): > 10 µM
TGI (MDA-MB-231 breast): > 10 µM
TGI (T-47D breast): > 10 µM
TGI (DU-145 prostate): > 10 µM
TGI (HCC-2998 colon): > 10 µM
TGI (UACC-257 melanoma): > 10 µM
TGI (K-562 leukemia): > 10 µM
TGI (LOX IMVI melanoma): > 10 µM
TGI (MCF7 breast): > 10 µM
TGI (SR leukemia): > 10 µM
TGI (SF-295 CNS): > 10 µM
TGI (RXF 393 renal): > 10 µM
TGI (TK-10 renal): > 10 µM
TGI (SK-OV-3 ovarian): > 10 µM
TGI (MOLT-4 leukemia): > 10 µM
TGI (KM12 colon): > 10 µM
TGI (SF-268 CNS): > 10 µM
TGI (MALME-3M melanoma): 6.77 µM
TGI (SK-MEL-5 melanoma): 4.27 µM
TGI (MDA-MB-435): 4.53 µM
TGI (M14 melanoma): > 10 µM
TGI (CCRF-CEM leukemia): > 10 µM
TGI (UACC-62 melanoma): > 10 µM
TGI (HOP-92 NSCLC): > 10 µM
TGI (PC-3 prostate): > 10 µM
TGI (A549 NSCLC): > 10 µM
TGI (MDA-N): > 10 µM
